Test results from patent publication US9708377B2, “Scorpion toxin analogue and method for treating autoimmune diseases” (MONASH UNIVERSITY, priority 2013, dated 2017).

Columns and labels:
[1] = target: T1, mKv1.1 channels (Mus musculus, UniProt P16388); assay: Whole-cell patch-clamp block of Kv1.1 channels in L929 cells; assay type: cell-based; settings: for current block on Kv1.1 channels: 100 nM, n=3, preliminary
T1 construct: expressed in transfected cells
Protocol: Cells and Cell Lines—L929 mouse fibroblast cells stably expressing mKv1.1 and mKv1.3 channels (Grissmer S et al., 1994) were maintained in DMEM medium (Invitrogen Corporation, Carlsbad, Calif., United States of America) supplemented with 100 IU/mL penicillin, 0.1 μg/mL streptomycin, 2 mM L-glutamine, 10% heat-inactivated foetal bovine serum, and 0.5 mg/mL G418 (EMD Chemicals, Gibbstown, N.J., United States of America).
Electrophysiological Analysis—Experiments were conducted at room temperature in the whole-cell configuration of the patch-clamp technique. A manual setup and an automated Port-a-patch setup (Nanion, North Brunswick, N.J., United States of America) were used in parallel, both linked to a HEKA EPC10USB amplifier. […] The bath solution contained (in mM): 160 NaCl, 4.5 KCl, 2 CaCl2, 1 MgCl2, 10 HEPES, pH 7.2, 300 mOsm. Kv currents were elicited every 30 s by 200-ms depolarising pulses from a holding potential of −80 mV to 40 mV. Kd values and Hill coefficients were determined by fitting the Hill equation to the reduction of peak current measured at 40 mV.

[2] = test system: voltage-gated K+ channels; settings: rat brain synaptosomal membranes; read-out: IC50 competition with 125I-kaliotoxin binding; cited from earlier work
[3] = target: rat Kv1.3 channels (Rattus norvegicus, UniProt P15384); settings: Lebrun B et al., 1997; read-out: IC50 inhibition of rat Kv1.3 channels; cited from earlier work
Sequence of rat Kv1.3 channels (P15384 whole entry): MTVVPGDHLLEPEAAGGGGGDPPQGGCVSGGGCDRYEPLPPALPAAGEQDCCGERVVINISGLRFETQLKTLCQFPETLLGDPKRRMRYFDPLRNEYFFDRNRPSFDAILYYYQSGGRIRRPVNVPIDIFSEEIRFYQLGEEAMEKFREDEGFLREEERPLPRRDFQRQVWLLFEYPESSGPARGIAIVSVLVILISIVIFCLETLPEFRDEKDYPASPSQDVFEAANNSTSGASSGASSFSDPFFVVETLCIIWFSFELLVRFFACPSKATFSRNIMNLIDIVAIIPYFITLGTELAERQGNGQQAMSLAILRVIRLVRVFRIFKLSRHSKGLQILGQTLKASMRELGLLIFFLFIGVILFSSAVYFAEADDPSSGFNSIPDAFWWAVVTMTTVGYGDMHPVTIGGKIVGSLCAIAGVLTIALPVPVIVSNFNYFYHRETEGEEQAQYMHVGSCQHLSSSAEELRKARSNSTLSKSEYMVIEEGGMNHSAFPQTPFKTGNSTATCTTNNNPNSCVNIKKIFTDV

[4] = target: T2, Kv1.3 (Rattus norvegicus, UniProt P15384); settings: Kv1.3 complex; cited from earlier work
T2 sequence (P15384 whole entry): as above

[5] = test system: rat brain synaptosomal membranes; settings: cited from earlier work
[6] = target: T2, Kv1.3; settings: C-terminal amidation; cited from earlier work
[7] = target: Kv1.1 (Homo sapiens, UniProt Q09470); settings: Kv1.1 complex; cited from earlier work
Sequence of Kv1.1 (Q09470 whole entry): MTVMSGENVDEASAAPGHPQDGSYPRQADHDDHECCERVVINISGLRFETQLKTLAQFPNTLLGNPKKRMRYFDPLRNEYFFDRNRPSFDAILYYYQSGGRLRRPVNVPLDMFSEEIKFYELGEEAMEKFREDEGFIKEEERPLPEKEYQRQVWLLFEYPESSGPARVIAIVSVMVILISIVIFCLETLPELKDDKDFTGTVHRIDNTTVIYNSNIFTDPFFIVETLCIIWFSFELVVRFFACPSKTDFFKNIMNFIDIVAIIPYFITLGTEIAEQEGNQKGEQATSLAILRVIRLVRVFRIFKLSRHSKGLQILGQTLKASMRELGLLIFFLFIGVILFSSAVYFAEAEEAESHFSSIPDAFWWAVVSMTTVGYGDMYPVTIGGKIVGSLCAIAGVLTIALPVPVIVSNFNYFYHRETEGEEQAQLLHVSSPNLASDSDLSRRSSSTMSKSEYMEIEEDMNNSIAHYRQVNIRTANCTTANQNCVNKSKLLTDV

T1 sequence (P16388 whole entry): as the sequence (Q09470 whole entry) above, with V9A, A14T, V202I, N213T, M449I, V471A, A476G, N482D counted along it

Compound | IC50 [1] | current block on Kv1.1 channels [1] | IC50 [2] | IC50 [3] | Gb (exp) experimental binding free energy [4] | competition with 125I-apamin binding [5] | affinity for Kv1.3 of amidated form compared to synthetic carboxylated form [6] | Gb (exp) experimental binding free energy [7]
CSCC[C@@H]1NC(=O)[C@@H]2CSSC[C@H](NC(=O)[C@H](CO)NC(=O)[C@H](C)N)C(=O)N[C@@H](CCCNC(=N)N)C(=O)N[C@@H]([C@@H](C)O)C(=O)N3CCC[C@H]3C(=O)N[C@@H](CCCCN)C(=O)N[C@@H](CC(=O)O)C(=O)N[C@H]3CSSC[C@H](NC(=O)[C@H](CCCCN)NC(=O)[C@H](CCCNC(=N)N)NC(=O)[C@H](CC(N)=O)NC1=O)C(=O)N[C@@H](CCCCN)C(=O)N[C@H]1CSSC[C@H](NC(=O)[C@@H]4CCCN4C(=O)[C@H](CC(=O)O)NC(=O)[C@H](C)NC3=O)C(=O)N[C@@H](C)C(=O)N[C@@H](CCCCN)C(=O)N[C@@H](CCC(=O)O)C(=O)N[C@@H]([C@@H](C)O)C(=O)NCC(=O)N[C@@H](CSSC[C@@H](C(N)=O)NC(=O)[C@H](CCCNC(=N)N)NC(=O)[C@H](CC(N)=O)NC1=O)C(=O)N1CCC[C@H]1C(=O)N[C@@H](Cc1ccc(O)cc1)C(=O)NCC(=O)N[C@@H](CCCCN)C(=O)N2 [HsTX1[R14A]] | > 100000 pM | 10-16% | – | – | – | – | – | –
CC[C@@H]1NC(=O)[C@@H]2CSSC[C@@H]3NC(=O)[C@H](CCCCN)NC(=O)[C@@H]4CSSC[C@H](NC(=O)[C@H](CC(=O)O)NC(=O)[C@H](CCCCN)NC(=O)[C@@H]5CCCN5C(=O)[C@H]([C@@H](C)O)NC(=O)[C@H](CCCNC(=N)N)NC(=O)[C@@H](NC(=O)[C@H](CO)NC(=O)[C@H](C)N)CSSC[C@H](NC(=O)[C@H](CCCCN)NC(=O)CNC(=O)[C@H](Cc5ccc(O)cc5)NC(=O)[C@@H]5CCCN5C(=O)[C@H](CSSC[C@@H](C(N)=O)NC(=O)[C@H](CCCNC(=N)N)NC(=O)[C@H](CC(N)=O)NC3=O)NC(=O)CNC(=O)[C@H]([C@@H](C)O)NC(=O)[C@H](CCC(=O)O)NC(=O)[C@H](CCCCN)NC1=O)C(=O)N[C@@H](CCSC)C(=O)N[C@@H](CC(N)=O)C(=O)N[C@@H](CCCNC(=N)N)C(=O)N[C@@H](CCCCN)C(=O)N4)C(=O)N[C@@H](C)C(=O)N[C@@H](CC(=O)O)C(=O)N1CCC[C@H]1C(=O)N2 [HsTX1[R14Abu], ASCRTPKDCADPCXKETGCPYGKCMNRKCKCNRC] | > 100000 pM | 15-20% | – | – | – | – | – | –
ASCRTPKDCADPCRKETGCPYGKCMNRKCKCNRC [HsTX1] | – | – | ~1 pM | ~12 pM | -14.9 ± 0.2 kcal/mol | did not compete | five-fold greater affinity for Kv1.3 | -11.1 ± 0.1 kcal/mol
